Measurements: ChEMBL document CHEMBL5614446, “Side Chain Investigation of Imidazopyridazine as a Hinge Binder for Targeting Actionable Mutations of RET Kinase” (ACS Med Chem Lett, 2024)
pIC50: −log10 of the molar value.

Columns and labels:
[1] = tested on: Proto-oncogene tyrosine-protein kinase receptor Ret (Homo sapiens), P07949 [G810R]; assay: Inhibition of human RET kinase-G810R mutant assessed as residual activity at 0.1 uM using RRRRRRRRRRRVYSTDYYRLFNPS as substrate in presence of [gamma33P]-ATP and 10 uM ATP by radiometric HotSpot assay
[2] = molecular target: Proto-oncogene tyrosine-protein kinase receptor Ret (Homo sapiens, UniProt P07949, G810R); assay: Inhibition of human RET kinase-G810R mutant using RRRRRRRRRRRVYSTDYYRLFNPS as substrate in presence of [gamma33P]-ATP and 10 uM ATP by radiometric HotSpot assay
[3] = Inhibition of human […]-RET kinase-V804M mutant in presence of [gamma33P]-ATP and 10 uM ATP by radiometric HotSpot assay
[4] = molecular target: Proto-oncogene tyrosine-protein kinase receptor Ret (Homo sapiens, UniProt P07949, V804M); assay: Inhibition of human RET kinase-V804M mutant using RRRRRRRRRRRVYSTDYYRLFNPS as substrate in presence of [gamma33P]-ATP and 10 uM ATP by radiometric HotSpot assay
[5] = molecular target: Proto-oncogene tyrosine-protein kinase receptor Ret (Homo sapiens, UniProt P07949); assay: Inhibition of human wild type RET kinase using RRRRRRRRRRRVYSTDYYRLFNPS as substrate in presence of [gamma33P]-ATP and 10 uM ATP by radiometric HotSpot assay
[6] = molecular target: Kinesin-1 heavy chain/ Tyrosine-protein kinase receptor RET (Homo sapiens, UniProt P07949); assay: Inhibition of human […]-RET kinase in presence of [gamma33P]-ATP and 10 uM ATP by radiometric HotSpot assay; type: protein assay
BaF3 [7] = assay: Cytotoxicity against mouse BaF3 cells expressing […]-RET kinase-V804M mutant fusion protein assessed as inhibition of cell proliferation incubated for 72 hrs by CCK8 assay; type: functional, cell-based; conditions: BaF3, 72 h
BaF3 [8] = assay: Cytotoxicity against mouse BaF3 cells expressing […]-RET kinase-G810S mutant fusion protein assessed as inhibition of cell proliferation incubated for 72 hrs by CCK8 assay; type: functional, cell-based; conditions: BaF3, 72 h
BaF3 [9] = assay: Cytotoxicity against mouse BaF3 cells expressing […]-RET kinase-V804L mutant fusion protein assessed as inhibition of cell proliferation incubated for 72 hrs by CCK8 assay; type: functional, cell-based; conditions: BaF3, 72 h
BaF3 [10] = assay: Cytotoxicity against mouse BaF3 cells expressing […]-RET kinase fusion protein assessed as inhibition of cell proliferation incubated for 72 hrs by CCK8 assay; type: functional, cell-based; conditions: BaF3, 72 h
BaF3 [11] = assay: Cytotoxicity against mouse BaF3 cells expressing […]-RET kinase-G810C mutant fusion protein assessed as inhibition of cell proliferation incubated for 72 hrs by CCK8 assay; type: functional, cell-based; conditions: BaF3, 72 h
BaF3 [12] = assay: Cytotoxicity against mouse BaF3 cells expressing […]-RET kinase-G810A mutant fusion protein assessed as inhibition of cell proliferation incubated for 72 hrs by CCK8 assay; type: functional, cell-based; conditions: BaF3, 72 h
BaF3 [13] = assay: Cytotoxicity against mouse BaF3 cells expressing […]-RET kinase-G810R mutant fusion protein assessed as inhibition of cell proliferation incubated for 72 hrs by CCK8 assay; type: functional, cell-based; conditions: BaF3, 72 h
[14] = tested on: Proto-oncogene tyrosine-protein kinase receptor Ret (Homo sapiens), P07949 [V804M]; assay: Inhibition of human RET kinase-V804M mutant at 0.1 uM using RRRRRRRRRRRVYSTDYYRLFNPS as substrate in presence of [gamma33P]-ATP and 10 uM ATP by radiometric HotSpot assay relative to control
Proto-oncogene tyrosine-protein kinase receptor Ret (Homo sapiens), P07949 [V804M], sequence (P07949 whole entry V804M): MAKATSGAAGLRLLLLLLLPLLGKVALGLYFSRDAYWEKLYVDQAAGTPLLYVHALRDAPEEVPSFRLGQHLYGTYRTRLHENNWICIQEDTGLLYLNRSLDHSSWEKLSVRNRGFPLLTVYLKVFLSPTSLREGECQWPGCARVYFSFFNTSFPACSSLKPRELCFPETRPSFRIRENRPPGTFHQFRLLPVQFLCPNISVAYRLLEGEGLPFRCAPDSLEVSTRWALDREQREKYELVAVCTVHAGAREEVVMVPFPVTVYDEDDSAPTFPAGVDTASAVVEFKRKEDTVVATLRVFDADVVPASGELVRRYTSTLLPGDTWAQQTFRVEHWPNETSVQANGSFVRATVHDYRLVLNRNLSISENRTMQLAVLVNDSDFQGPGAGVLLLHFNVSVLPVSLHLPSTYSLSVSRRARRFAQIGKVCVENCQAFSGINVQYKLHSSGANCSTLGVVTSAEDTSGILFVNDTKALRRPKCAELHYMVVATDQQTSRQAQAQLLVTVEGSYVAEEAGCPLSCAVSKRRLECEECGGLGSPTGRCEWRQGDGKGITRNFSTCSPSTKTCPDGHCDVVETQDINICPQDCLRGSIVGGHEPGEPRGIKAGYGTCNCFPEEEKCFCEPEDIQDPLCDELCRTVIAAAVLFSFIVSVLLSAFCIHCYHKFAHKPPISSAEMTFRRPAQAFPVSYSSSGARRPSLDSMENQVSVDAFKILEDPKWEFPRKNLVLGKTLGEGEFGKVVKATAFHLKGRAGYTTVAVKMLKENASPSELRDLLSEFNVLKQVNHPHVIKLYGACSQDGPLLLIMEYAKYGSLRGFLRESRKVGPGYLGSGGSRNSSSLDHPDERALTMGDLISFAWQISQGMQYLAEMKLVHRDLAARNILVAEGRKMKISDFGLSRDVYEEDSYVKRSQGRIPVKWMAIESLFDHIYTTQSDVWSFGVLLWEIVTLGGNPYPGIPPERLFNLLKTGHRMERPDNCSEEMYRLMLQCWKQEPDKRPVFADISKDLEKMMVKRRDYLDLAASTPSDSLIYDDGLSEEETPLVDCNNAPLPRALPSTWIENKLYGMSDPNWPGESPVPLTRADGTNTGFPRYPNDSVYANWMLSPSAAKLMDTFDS

Proto-oncogene tyrosine-protein kinase receptor Ret (Homo sapiens, UniProt P07949, G810R), sequence (P07949 29-1114 G810R limits assumed): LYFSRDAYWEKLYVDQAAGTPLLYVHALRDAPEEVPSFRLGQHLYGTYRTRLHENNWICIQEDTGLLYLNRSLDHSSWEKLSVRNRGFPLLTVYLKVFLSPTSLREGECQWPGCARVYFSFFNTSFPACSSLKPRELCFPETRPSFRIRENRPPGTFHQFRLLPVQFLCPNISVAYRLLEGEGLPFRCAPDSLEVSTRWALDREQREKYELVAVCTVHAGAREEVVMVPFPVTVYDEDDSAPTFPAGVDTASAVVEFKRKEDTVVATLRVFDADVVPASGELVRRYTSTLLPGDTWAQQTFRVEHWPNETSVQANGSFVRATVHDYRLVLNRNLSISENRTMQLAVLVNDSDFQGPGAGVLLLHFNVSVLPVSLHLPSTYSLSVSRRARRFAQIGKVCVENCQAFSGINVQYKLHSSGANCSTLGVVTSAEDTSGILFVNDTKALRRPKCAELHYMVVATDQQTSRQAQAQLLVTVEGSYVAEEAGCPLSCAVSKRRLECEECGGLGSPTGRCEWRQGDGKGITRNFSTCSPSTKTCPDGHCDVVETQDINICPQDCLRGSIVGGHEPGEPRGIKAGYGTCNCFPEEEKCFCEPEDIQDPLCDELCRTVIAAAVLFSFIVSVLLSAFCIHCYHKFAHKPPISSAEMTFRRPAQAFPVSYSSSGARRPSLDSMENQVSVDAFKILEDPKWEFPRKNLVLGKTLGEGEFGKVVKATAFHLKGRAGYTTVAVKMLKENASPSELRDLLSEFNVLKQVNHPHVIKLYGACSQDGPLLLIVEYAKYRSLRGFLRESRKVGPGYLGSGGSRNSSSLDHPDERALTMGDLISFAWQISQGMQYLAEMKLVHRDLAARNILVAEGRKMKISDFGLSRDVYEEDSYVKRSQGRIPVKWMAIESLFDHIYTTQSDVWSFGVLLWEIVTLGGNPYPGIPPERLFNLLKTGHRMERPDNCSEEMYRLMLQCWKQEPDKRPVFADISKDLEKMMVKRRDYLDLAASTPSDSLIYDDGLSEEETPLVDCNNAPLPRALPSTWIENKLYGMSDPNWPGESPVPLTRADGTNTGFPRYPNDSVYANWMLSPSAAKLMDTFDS
Proto-oncogene tyrosine-protein kinase receptor Ret (Homo sapiens, UniProt P07949, V804M), sequence (P07949 29-1114 V804M limits assumed): as the sequence (P07949 29-1114 G810R limits assumed) above, with V776M, R782G counted along it
Proto-oncogene tyrosine-protein kinase receptor Ret (Homo sapiens, UniProt P07949), sequence (P07949 whole entry): as the sequence (P07949 whole entry V804M) above, with M804V counted along it
Kinesin-1 heavy chain/ Tyrosine-protein kinase receptor RET, sequence (P07949 whole entry, the tested form may be a part): as the sequence (P07949 whole entry V804M) above, with M804V counted along it
Kinesin-1 heavy chain/ Tyrosine-protein kinase receptor RET, sequence (P33176 whole entry, further chain, the tested form may be a part): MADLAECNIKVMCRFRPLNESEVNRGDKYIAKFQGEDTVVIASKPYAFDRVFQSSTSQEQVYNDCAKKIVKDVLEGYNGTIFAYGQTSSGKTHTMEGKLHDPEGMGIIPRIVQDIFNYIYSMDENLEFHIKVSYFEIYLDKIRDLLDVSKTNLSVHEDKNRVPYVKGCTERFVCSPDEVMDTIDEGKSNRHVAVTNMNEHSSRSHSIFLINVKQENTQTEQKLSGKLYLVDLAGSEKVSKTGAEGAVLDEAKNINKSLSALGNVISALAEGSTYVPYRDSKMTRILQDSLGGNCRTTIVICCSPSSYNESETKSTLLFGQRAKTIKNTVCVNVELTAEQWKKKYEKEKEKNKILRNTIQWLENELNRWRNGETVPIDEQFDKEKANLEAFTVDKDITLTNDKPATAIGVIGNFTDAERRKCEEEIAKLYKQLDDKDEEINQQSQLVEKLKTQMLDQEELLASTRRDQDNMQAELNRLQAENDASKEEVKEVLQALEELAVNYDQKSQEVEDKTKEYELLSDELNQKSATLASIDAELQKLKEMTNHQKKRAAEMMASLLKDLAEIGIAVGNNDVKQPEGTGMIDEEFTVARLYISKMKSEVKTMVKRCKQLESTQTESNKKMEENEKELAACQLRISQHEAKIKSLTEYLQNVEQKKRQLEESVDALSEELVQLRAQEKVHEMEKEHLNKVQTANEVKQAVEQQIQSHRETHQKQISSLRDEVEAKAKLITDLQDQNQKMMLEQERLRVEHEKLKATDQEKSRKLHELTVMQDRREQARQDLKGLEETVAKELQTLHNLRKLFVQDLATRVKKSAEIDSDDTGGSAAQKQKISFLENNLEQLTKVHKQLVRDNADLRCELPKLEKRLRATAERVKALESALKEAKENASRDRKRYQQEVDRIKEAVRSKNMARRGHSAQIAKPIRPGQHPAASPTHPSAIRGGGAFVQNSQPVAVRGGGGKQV
Proto-oncogene tyrosine-protein kinase receptor Ret (Homo sapiens), P07949 [G810R], sequence (P07949 whole entry G810R): as the sequence (P07949 whole entry V804M) above, with M804V, G810R counted along it

| SMILES | Activity [1] | pIC50 [2] | pIC50 [3] | pIC50 [4] | pIC50 [5] | pIC50 [6] | inhibition [14] | pIC50 (BaF3 [7]) | pIC50 (BaF3 [8]) | pIC50 (BaF3 [9]) | pIC50 (BaF3 [10]) | pIC50 (BaF3 [11]) | pIC50 (BaF3 [12]) | pIC50 (BaF3 [13]) |
| --- | --- | --- | --- | --- | --- | --- | --- | --- | --- | --- | --- | --- | --- | --- |
| Cc1ccc(C(=O)Nc2ccc(CN3CCN(C)CC3)c(C(F)(F)F)c2)cc1C#Cc1cnc2ccc(OCCNC(C)C)nn12 |  | 7.60 | 7.71 | > 9.30 | 8.44 | 8.92 |  |  |  |  |  |  |  |  |
| COc1ccc(Nc2ccc3ncc(C#Cc4cc(C(=O)Nc5cc(CN6CCN(C)CC6)cc(C(F)(F)F)c5)ccc4C)n3n2)cc1 | 46.6% | 7.05 | 6.86 | 9.05 |  |  |  |  |  |  |  |  |  |  |
| CCOC(=O)c1nc2ccc(Nc3cc(C)[nH]n3)nn2c1C#Cc1cc(C(=O)Nc2cc(-n3cnc(C)c3)cc(C(F)(F)F)c2)ccc1C |  | < 5.70 | < 5.70 | 6.99 | 6.04 | < 5.70 |  |  |  |  |  |  |  |  |
| Cc1ccc(C(=O)Nc2cc(CN3CCN(C)CC3)cc(C(F)(F)F)c2)cc1C#Cc1cnc2ccc(Cl)nn12 |  | 7.70 | 6.55 | > 9.30 |  |  | 100% |  |  |  |  |  |  |  |
| CCOC(=O)c1nc2n(c1C#Cc1cc(C(=O)Nc3cc(-n4cnc(C)c4)cc(C(F)(F)F)c3)ccc1C)NC(NC1CC1)C=C2 (stereo not drawn) |  |  |  |  |  |  |  |  | 5.52 | 5.48 | 5.52 | 5.54 | 5.42 | 5.42 |
| COc1ccc(CN2C3CC2CN(c2ccc(-c4cc(OCC(C)(C)O)cn5ncc(C#N)c45)cn2)C3)cn1 [SELPERCATINIB] |  |  |  |  |  |  |  | 7.00 | 6.40 | 7.70 | 8.00 | 5.24 | 6.59 | 5.68 |
| CCOC(=O)c1nc2ccc(NCCN3CCCCC3)nn2c1C#Cc1cc(C(=O)Nc2cc(-n3cnc(C)c3)cc(C(C)(C)C#N)c2)c(NCCN2CCCCC2)cc1C |  |  |  |  |  |  |  |  | 5.80 | 5.80 | 6.05 | 5.77 | 5.92 | 5.92 |

Now from value to molecule, other results behind:

| Activity [1] | pIC50 [2] | pIC50 [3] | pIC50 [4] | pIC50 [5] | pIC50 [6] | inhibition [14] | SMILES | pIC50 (BaF3 [7]) | pIC50 (BaF3 [8]) | pIC50 (BaF3 [9]) | pIC50 (BaF3 [10]) | pIC50 (BaF3 [11]) | pIC50 (BaF3 [12]) | pIC50 (BaF3 [13]) |
| --- | --- | --- | --- | --- | --- | --- | --- | --- | --- | --- | --- | --- | --- | --- |
| 26.4% | 7.38 | 7.32 | 10.00 |  |  |  | Cc1ccc(C(=O)Nc2cc(CN3CCN(C)CC3)cc(C(F)(F)F)c2)cc1C#Cc1cnc2ccc(N3CCOCC3)nn12 |  |  |  |  |  |  |  |
|  | 5.89 | 6.21 | 8.13 | 6.46 | 7.36 |  | Cc1cn(-c2cc(NC(=O)c3cc(C#Cc4cnc5ccc(OCCN6CCOCC6)nn45)c(C)cc3F)cc(C(C)(C)C#N)c2)cn1 | 5.80 | 7.00 | 5.74 | 7.00 | 6.22 | 7.30 | 6.40 |
|  | 7.96 | 7.07 | > 9.30 | 6.32 | 6.89 |  | Cc1ccc(C(=O)Nc2ccc(CN3CCN(C)CC3)c(C(F)(F)F)c2)cc1C#Cc1cnc2ccc(OCCN3CCOCC3)nn12 |  |  |  |  |  |  |  |
